Data from ChEMBL document CHEMBL3272295, “Drugs derived from cannabinoids. 5. delta6a,10a-Tetrahydrocannabinol and heterocyclic analogs containing aromatic side chains” (J Med Chem, 1976).
Activity calls are given as the source filed them. The rule behind the calls is not given here.

Columns and labels:
Rattus norvegicus [1] = test: Antihypertensive activity in spontaneously hypertensive rat model assessed as reduction in blood pressure at 30 mg/kg, po after 24 hrs; type: functional; set-up: scale not given: the % may be the effect or the level left
Rattus norvegicus [2] = test: Increase in motor activity in Long-Evans rat at 10 mg/kg, po after 2 hrs relative to vehicle-treated control; type: functional
Mus musculus [3] = test: Analgesic activity in mouse assessed as inhibition of acetic acid-induced writhing at 10 mg/kg, po administered 30 mins prior to acetic acid challenge measured after 5 mins for 20 mins; type: functional
Rattus norvegicus [4] = test: Antihypertensive activity in spontaneously hypertensive rat model assessed as reduction in blood pressure at 30 mg/kg, po after 3 hrs; type: functional; set-up: scale not given: the % may be the effect or the level left
Mus musculus [5] = test: Antianxiety activity in albino BALB/cJ mouse assessed as reduction in footshock-induced fighting behavior at 10 mg/kg, po after 30 to 90 mins; type: functional; set-up: scale not given: the % may be the effect or the level left
[6] = Acute toxicity in po dosed mouse; type: organism-based; settings: in vivo
Rattus norvegicus [7] = test: Antipsychotic activity in rat assessed as reduction of methamphetamine-induced hyperactivity at 10 mg/kg, po administered prior to methamphetamine challenge relative to vehicle-treated control; type: functional; set-up: scale not given: the % may be the effect or the level left
Rattus norvegicus [8] = test: Antiulcer activity in albino Sprague-Dawley rat reserpine ulcer model assessed as prevention of reserpine-induced gastric lesions by measuring ulcer index scores at 50 mg/kg, po administered 30 mins prior to reserpine challenge measured after 6 hrs; type: functional, Stomach
Felis catus [9] = test: Hypnotic activity in cat assessed as increase in non-REM sleep time at 0.1 mg/kg administered orally through diet measured for 12 hrs by EEG analysis; type: functional; settings: route oral
Rattus norvegicus [10] = test: Antisecretory activity in Sprague-Dawley rat assessed as decrease in acid output at 50 mg/kg, po administered 30 mins prior to pylorus ligation measured after 4 hrs relative to control; type: functional; set-up: scale not given: the % may be the effect or the level left
Felis catus [11] = test: Hypnotic activity in cat assessed as increase in total sleep time at 1 mg/kg administered orally through diet measured for 12 hrs by EEG analysis; type: functional; settings: route oral
Rattus norvegicus [12] = organism: Rattus norvegicus; test: animal or person; type: functional; settings: Charles River, route oral
Description: Antidiarrheal activity in Charles River rat assessed as inhibition of castor oil-induced diarrhea by measuring protected animals at 0.5 mg/kg, po administered 1 hr prior to castor oil challenge measured after 1 hr relative to vehicle-treated control

Rattus norvegicus [13] = test: Antisecretory activity in Sprague-Dawley rat assessed as decrease in volume at 50 mg/kg, po administered 30 mins prior to pylorus ligation measured after 4 hrs relative to control; type: functional; set-up: scale not given: the % may be the effect or the level left
Rattus norvegicus [14] = test: Antiulcer activity in albino Sprague-Dawley rat shay ulcer model assessed as ulcer index scores at 40 mg/kg administered intraduodenally post pyloric ligation measured after 18.5 hrs relative to vehicle-treated control; type: functional; settings: route intraduodenal
Rattus norvegicus [15] = organism: Rattus norvegicus; test: animal or person; type: functional; settings: Charles River, route oral; remark: listed apart in the source
Description: Antidiarrheal activity in Charles River rat assessed as inhibition of castor oil-induced diarrhea by measuring protected animals at 1 mg/kg, po administered 1 hr prior to castor oil challenge measured after 1 hr relative to vehicle-treated control

Felis catus [16] = test: Hypnotic activity in cat assessed as increase in non-REM sleep time at 0.25 mg/kg administered orally through diet measured for 12 hrs by EEG analysis; type: functional; settings: route oral
Rattus norvegicus [17] = test: Antiulcer activity in albino Sprague-Dawley rat stress ulcer model assessed as prevention of stress-induced gastric lesions by measuring ulcer index score at 40 mg/kg, po administered 30 mins prior to stress measured after 4 hrs; type: functional, Stomach
Rattus norvegicus [18] = test: Antidiarrheal activity in Charles River rat assessed as inhibition of castor oil-induced diarrhea by measuring protected animals at 0.25 mg/kg, po administered 1 hr prior to castor oil challenge measured after 1 hr relative to vehicle-treated control; type: functional
Felis catus [19] = test: Hypnotic activity in cat assessed as increase in total sleep time at 0.1 mg/kg administered orally through diet measured for 12 hrs by EEG analysis; type: functional; settings: route oral
Rattus norvegicus [20] = test: Antihypertensive activity in spontaneously hypertensive rat model assessed as reduction in blood pressure at 10 mg/kg, po after 24 hrs; type: functional; set-up: scale not given: the % may be the effect or the level left
Felis catus [21] = test: Hypnotic activity in cat assessed as increase in non-REM sleep time at 0.025 mg/kg administered orally through diet measured for 12 hrs by EEG analysis; type: functional; settings: route oral
Canis familiaris = test: Antianxiety activity in po dosed dog assessed as ataxia administered as single dose measured up to 24 hrs; type: functional; settings: Canis lupus familiaris, read-out: MED
Felis catus [22] = test: Hypnotic activity in cat assessed as increase in non-REM sleep time at 0.5 mg/kg administered orally through diet measured for 12 hrs by EEG analysis; type: functional; settings: route oral
Rattus norvegicus [23] = test: Antianxiety activity in Long-Evans rat assessed as reduction in motor activity at 1 mg/kg, po after 2 hrs relative to vehicle-treated control; type: functional; set-up: scale not given: the % may be the effect or the level left
Rattus norvegicus [24] = test: Antisecretory activity in Sprague-Dawley rat assessed as decrease in acidity at 50 mg/kg, po administered 30 mins prior to pylorus ligation measured after 4 hrs relative to control; type: functional; set-up: scale not given: the % may be the effect or the level left
Mus musculus [25] = test: Antianxiety activity in albino BALB/cJ mouse assessed as reduction in footshock-induced fighting behavior at 1 mg/kg, po after 30 to 90 mins; type: functional; set-up: scale not given: the % may be the effect or the level left
Felis catus [26] = test: Hypnotic activity in cat assessed as decrease in total sleep time at 0.025 mg/kg administered orally through diet measured for 12 hrs by EEG analysis; type: functional; settings: route oral
Rattus norvegicus [27] = test: Antiulcer activity in albino Sprague-Dawley rat reserpine ulcer model assessed as prevention of reserpine-induced gastric lesions by measuring ulcer index scores at 10 mg/kg, po administered 30 mins prior to reserpine challenge measured after 6 hrs; type: functional; settings: Stomach
Rattus norvegicus [28] = test: Antisecretory activity in Sprague-Dawley rat assessed as decrease in pepsin output at 50 mg/kg, po administered 30 mins prior to pylorus ligation measured after 4 hrs relative to control; type: functional; set-up: scale not given: the % may be the effect or the level left
Rattus norvegicus [29] = test: Antihypertensive activity in spontaneously hypertensive rat model assessed as reduction in blood pressure at 3 mg/kg, po after 3 hrs; type: functional; set-up: scale not given: the % may be the effect or the level left
Rattus norvegicus [30] = test: Antiulcer activity in albino Sprague-Dawley rat shay ulcer model assessed as ulcer index scores at 20 mg/kg administered intraduodenally post pyloric ligation measured after 18.5 hrs relative to vehicle-treated control; type: functional; settings: route intraduodenal
Rattus norvegicus [31] = test: Antihypertensive activity in spontaneously hypertensive rat model assessed as reduction in blood pressure at 3 mg/kg, po after 24 hrs; type: functional; set-up: scale not given: the % may be the effect or the level left
Rattus norvegicus [32] = test: Antiulcer activity in albino Sprague-Dawley rat stress ulcer model assessed as prevention of stress-induced gastric lesions by measuring ulcer index score at 10 mg/kg, po administered 30 mins prior to stress measured after 4 hrs; type: functional, Stomach
Mus musculus [33] = test: Analgesic activity in po dosed mouse assessed as inhibition of acetic acid-induced writhing administered 30 mins prior to acetic acid challenge measured after 5 mins for 20 mins; type: functional
Felis catus [34] = test: Hypnotic activity in cat assessed as increase in total sleep time at 0.25 mg/kg administered orally through diet measured for 12 hrs by EEG analysis; type: functional; settings: route oral
Felis catus [35] = test: Hypnotic activity in cat assessed as increase in total sleep time at 0.5 mg/kg administered orally through diet measured for 12 hrs by EEG analysis; type: functional; settings: route oral
Rattus norvegicus [36] = test: Antianxiety activity in Long-Evans rat assessed as reduction in motor activity at 10 mg/kg, po after 2 hrs relative to vehicle-treated control; type: functional; set-up: scale not given: the % may be the effect or the level left
Mus musculus [37] = test: Antidepressant activity in po dosed mouse assessed as potentiation of DOPA-induced effect administered 4 hrs prior to DOPA challenge; type: functional; settings: read-out: MED
Rattus norvegicus [38] = test: Antihypertensive activity in spontaneously hypertensive rat model assessed as reduction in blood pressure at 10 mg/kg, po after 3 hrs; type: functional; set-up: scale not given: the % may be the effect or the level left
Rattus norvegicus [39] = test: Antiulcer activity in albino Sprague-Dawley rat shay ulcer model assessed as ulcer index scores at 50 mg/kg administered intraduodenally post pyloric ligation measured after 18.5 hrs relative to vehicle-treated control; type: functional; settings: route intraduodenal
Rattus norvegicus [40] = test: Antipsychotic activity in rat assessed as reduction of methamphetamine-induced hyperactivity at 5 mg/kg, po administered prior to methamphetamine challenge relative to vehicle-treated control; type: functional; set-up: scale not given: the % may be the effect or the level left
Rattus norvegicus [41] = test: Antianxiety activity in Long-Evans rat assessed as reduction in motor activity at 0.5 mg/kg, po after 2 hrs relative to vehicle-treated control; type: functional; set-up: scale not given: the % may be the effect or the level left
Rattus norvegicus [42] = test: Analgesic activity in po dosed Sprague-Dawley rat after 15 to 90 mins by tail flick test; type: functional
Rattus norvegicus [43] = test: Antianxiety activity in Long-Evans rat assessed as reduction in motor activity at 100 mg/kg, po after 2 hrs relative to vehicle-treated control; type: functional; set-up: scale not given: the % may be the effect or the level left
Rattus norvegicus [44] = test: Increase in volume in Sprague-Dawley rat at 50 mg/kg, po administered 30 mins prior to pylorus ligation measured after 4 hrs relative to control; type: functional
Rattus norvegicus [45] = test: Increase in acid output in Sprague-Dawley rat at 50 mg/kg, po administered 30 mins prior to pylorus ligation measured after 4 hrs relative to control; type: functional
Rattus norvegicus [46] = test: Increase in motor activity in Long-Evans rat at 5 mg/kg, po after 2 hrs relative to vehicle-treated control; type: functional
Rattus norvegicus [47] = test: Increase in pepsin output in Sprague-Dawley rat at 50 mg/kg, po administered 30 mins prior to pylorus ligation measured after 4 hrs relative to control; type: functional
Rattus norvegicus [48] = test: Increase in methamphetamine-induced hyperactivity in rat at 5 mg/kg, po administered prior to methamphetamine challenge relative to vehicle-treated control; type: functional
Rattus norvegicus [49] = test: Antisecretory activity in Sprague-Dawley rat assessed as decrease in pepsin concentration at 50 mg/kg, po administered 30 mins prior to pylorus ligation measured after 4 hrs relative to control; type: functional; set-up: scale not given: the % may be the effect or the level left
Mus musculus [50] = test: Analgesic activity in mouse assessed as inhibition of acetic acid-induced writhing at 100 mg/kg, po administered 30 mins prior to acetic acid challenge measured after 5 mins for 20 mins; type: functional

C#CCN1CCC2=C(C1)c1c(O)cc(C(C)CCc3ccc(F)cc3)cc1OC2(C)C (centres undefined)
Activity (Rattus norvegicus [1]): 13% | Activity (Rattus norvegicus [2]): 44% | inhibition in vivo at 10 mg/kg (Mus musculus [3]): 10% | Activity (Rattus norvegicus [4]): 4% | Activity (Mus musculus [5]): 0% | LD50 [6]: ≥ 1000 mg/kg | Activity (Rattus norvegicus [7]): 0%

C#CCN1CCC2=C(C1)c1c(O)cc(C(C)C(C)CCCCC)cc1OC2(C)C (centres undefined)
UI (Rattus norvegicus [8]): 1.8 | Time (Felis catus [9]): 62 min | Activity (Rattus norvegicus [10]): 49.8% | Time (Felis catus [11]): 39 min | inhibition in vivo at 0.5 mg/kg (Rattus norvegicus [12]): 63% | Activity (Rattus norvegicus [13]): 39.3% | UI (Rattus norvegicus [14]): 0.3 | inhibition in vivo at 1 mg/kg (Rattus norvegicus [15]): 100% | Time (Felis catus [16]): 21 min | UI (Rattus norvegicus [17]): 1.6 | inhibition in vivo at 0.25 mg/kg (Rattus norvegicus [18]): 20% | Time (Felis catus [19]): 100 min | Activity (Rattus norvegicus [20]): 27% | Time (Felis catus [21]): 25 min | minimal effective dose (Canis familiaris): 1 mg/kg | Time (Felis catus [22]): 28 min | Activity (Rattus norvegicus [23]): 71% | Activity (Rattus norvegicus [24]): 23.5% | Activity (Mus musculus [25]): 42% | Time (Felis catus [26]): -12 min | Activity (Rattus norvegicus [27]): inactive | Activity (Rattus norvegicus [28]): 41.9% | Activity (Rattus norvegicus [29]): 7% | UI (Rattus norvegicus [30]): 4.2 | Activity (Rattus norvegicus [31]): 4% | UI (Rattus norvegicus [32]): 1.3 | ED50 (Mus musculus [33]): 4.3 mg/kg | Time (Felis catus [34]): 56 min | Activity (Mus musculus [5]): 62% | Time (Felis catus [35]): 44 min | Activity (Rattus norvegicus [36]): 75% | LD50 [6]: ≥ 1000 mg/kg | minimal effective dose (Mus musculus [37]): 2 mg/kg | Activity (Rattus norvegicus [38]): 23% | UI (Rattus norvegicus [39]): 0.5 | Activity (Rattus norvegicus [40]): 52% | Activity (Rattus norvegicus [7]): 74% | Activity (Rattus norvegicus [41]): 35%

CC(C)=CCN1CC[C@]2(C)c3cc(O)ccc3C[C@H]1[C@H]2C [(+)-PENTAZOCINE]
ED50 (Rattus norvegicus [42]): 60 mg/kg | inhibition in vivo at 0.5 mg/kg (Rattus norvegicus [12]): 0% | ED50 (Mus musculus [33]): 37.6 mg/kg | Activity (Rattus norvegicus [43]): 64% | Activity (Rattus norvegicus [36]): 30%

C#CCN1CCC2=C(C1)c1c(O)cc(CCCCC)cc1OC2(C)C
Activity (Rattus norvegicus [44]): 24.6% | Activity (Rattus norvegicus [1]): 9% | Activity (Rattus norvegicus [45]): 6.1% | Activity (Rattus norvegicus [46]): 6% | Time (Felis catus [22]): 12 min | Activity (Rattus norvegicus [24]): 14.8% | Activity (Rattus norvegicus [47]): 18.3% | Activity (Rattus norvegicus [48]): 47% | Activity (Rattus norvegicus [4]): 0% | Activity (Rattus norvegicus [49]): 8.3% | Activity (Mus musculus [5]): 6% | Time (Felis catus [35]): 28 min | LD50 [6]: ≥ 1000 mg/kg | inhibition in vivo at 100 mg/kg (Mus musculus [50]): 19%
